Assay: logP(HCOOH) reported with HPLC/MS
Conditions: HCOOH (formic acid), logP(HCOOH), HPLC/MS

Row | SMILES | chromatographic logP
1 | CCCCCC(=O)NCc1cccc(CON=C(c2ccccc2)c2nnnn2C)n1 [Example 53, N-({6-[({[(1-methyl-1H-tetrazol-5-yl)(phenyl)methylene]amino}oxy)methyl]pyridin-2-yl}methyl)hexanamide] | 2.88
2 | COc1ccc(CON=C(c2ccccc2)c2nnnn2C)nc1Br [Example 125, N-[(6-bromo-5-methoxypyridin-2-yl)methoxy]-1-(1-methyl-1H-tetrazol-5-yl)-1-phenylmethanimine] | 3.13
3 | Cn1nnnc1C(=NOCc1cccc(N(CCC2CCCCC2)C(=O)OC(C)(C)C)n1)c1ccccc1 [Example 141, tert-butyl (2-cyclohexylethyl){6-[({[(1-methyl-1H-tetrazol-5-yl)(phenyl)methylene]amino}oxy)methyl]pyridin-2-yl}carbamate] | 6.56

Same assay, conditions: HPLC, logP(HCOOH), HPLC/MS

Row | SMILES | chromatographic logP
4 | Cn1nnnc1C(=NOCc1cccc(CN)n1)c1ccccc1 [Example 52, 1-{6-[({[(1-methyl-1H-tetrazol-5-yl)(phenyl)methylene]amino}oxy)methyl]pyridin-2-yl}methanamine] | 1.23

Same assay, conditions: formic acid (HCOOH), logP(HCOOH), HPLC/MS

Row | SMILES | chromatographic logP
5 | Cn1nnnc1C(=NOCc1nc(Br)ccc1F)c1ccccc1 [Example 96, N-[(6-bromo-3-fluoro-pyridin-2-yl)methoxy]-1-(1-methyl-1H-tetrazol-5-yl)-1-phenylmethanimine] | 3.27

Same assay, conditions: method [a]: HPLC on reversed phase columns, pH 2.3 with 0.1% phosphoric acid and acetonitrile as eluent

Row | SMILES | log p
6 | COC=CC#Cc1nc(CON=C(c2ccccc2)c2nnnn2C)cs1 [Example 136] | 3.06^[a]
7 | CC(=O)OCCCC#Cc1nc(CON=C(c2ccccc2)c2nnnn2C)cs1 [Example 137] | 3.17^[a]
8 | Cn1nnnc1C(=NOCc1csc(C#C[Si](C)(C)C)n1)c1ccccc1 [Example 138] | 4.59^[a]
9 | C#Cc1nc(CON=C(c2ccccc2)c2nnnn2C)cs1 [Example 139] | 2.77^[a]
10 | Cn1nnnc1C(=NOCc1cccc(N(CCC2CC(F)(F)C2(F)F)C(=O)OC(C)(C)C)n1)c1ccccc1 (centres unmarked) [Example 140] | 5.05^[a]
11 | Cn1nnnc1C(=NOCc1cccc(N(CC2CC2)C(=O)OC(C)(C)C)n1)c1ccccc1 [Example 142] | 4.7^[a]
12 | Cn1nnnc1C(=NOCc1cccc(NCCC2CC(F)(F)C2(F)F)n1)c1ccccc1 (centres unmarked) [Example 143] | 2.51^[a]
13 | Cn1nnnc1C(=NOCc1cccc(NCC2CC2)n1)c1ccccc1 [Example 144] | 1.75^[a]

Same assay, conditions: method [b]: LC-MS at pH 2.7, 0.1% formic acid in water and acetonitrile, linear gradient 10% to 95% acetonitrile

Row | SMILES | log p
14 | Cc1nnnn1C(=NOCc1cccc(NC(=S)NCc2ccccc2)n1)c1ccccc1 [Example 10] | 3.52^[b]
15 | C=CCNC(=S)Nc1cccc(CON=C(c2ccccc2)n2nnnc2C)n1 [Example 11] | 3.09^[b]
16 | Cc1nnnn1C(=NOCc1cccc(NC(=S)NC(C)C)n1)c1ccccc1 [Example 12] | 3.22^[b]
17 | CCCCCNC(=S)Nc1cccc(CON=C(c2ccccc2)n2nnnc2C)n1 [Example 13] | 3.82^[b]
18 | COC(=O)c1cccc(CON=C(c2ccccc2)n2nnnc2C)n1 [Example 14] | 2.47^[b]
19 | Cc1nnnn1C(=NOCc1cccc(C(=O)O)n1)c1ccccc1 [Example 15] | 1.97^[b]
20 | CCCCCNC(=O)c1cccc(CON=C(c2ccccc2)n2nnnc2C)n1 [Example 16] | 3.52^[b]
21 | Cc1cccc(CON=C(c2ccccc2)c2nnnn2C)n1 [Example 42] | 1.67^[b]
22 | Cn1nnnc1C(=NOCc1ncc(C(F)(F)F)cc1Cl)c1ccccc1 [Example 43] | 3.76^[b]
23 | Cn1nnnc1C(=NOCc1cccc(CNC(=O)Cc2ccccc2)n1)c1ccccc1 [Example 54] | 2.7^[b]
24 | Cn1nnnc1C(=NOCc1cccc(CNC(=O)C(C)(C)C)n1)c1ccccc1 [Example 55] | 2.58^[b]
25 | CC(C)CC(=O)NCc1cccc(CON=C(c2ccccc2)c2nnnn2C)n1 [Example 56] | 2.51^[b]
26 | CCCCC(=O)NCc1cccc(CON=C(c2ccccc2)c2nnnn2C)n1 [Example 57] | 2.56^[b]
27 | Cn1nnnc1C(=NOCc1cccc(CNC(=O)CCc2ccccc2)n1)c1ccccc1 [Example 58] | 2.82^[b]
28 | CCCCCOC(=O)NCc1cccc(CON=C(c2ccccc2)c2nnnn2C)n1 [Example 60] | 3.48^[b]
29 | CCCCOC(=O)NCc1cccc(CON=C(c2ccccc2)c2nnnn2C)n1 [Example 63] | 3.19^[b]
30 | CC(C)C(C)NC(=O)c1cccc(CON=C(c2ccccc2)c2nnnn2C)n1 (centres unmarked) [Example 75] | 3.44^[b]
31 | CC(=O)N(CCC1CCCCC1)c1cccc(CON=C(c2ccccc2)c2nnnn2C)n1 [Example 76] | 4.16^[b]
32 | CN(C)C(=O)c1cccc(CON=C(c2ccccc2)c2nnnn2C)n1 [Example 77] | 2.04^[b]
33 | CC(C)c1nc(CON=C(c2ccccc2)c2nnnn2C)cs1 [Example 78] | 3.39^[b]
34 | Cn1nnnc1C(=NOCc1cccc(F)n1)c1ccccc1 [Example 79] | 2.77^[b]
35 | COC[C@H](C)NC(=O)c1cccc(CON=C(c2ccccc2)c2nnnn2C)n1 [Example 83] | 2.7^[b]
36 | CC(C)NC(=O)c1cccc(CON=C(c2ccccc2)c2nnnn2C)n1 [Example 84] | 2.84^[b]
37 | CCCCCN(C)C(=O)c1cccc(CON=C(c2ccccc2)c2nnnn2C)n1 [Example 85] | 3.29^[b]
38 | Cn1nnnc1C(=NOCc1cccc(C(=O)NC(C)(C)C)n1)c1ccccc1 [Example 86] | 3.37^[b]
39 | Cn1nnnc1C(=NOCc1nc(C#CCC2CCCCC2)ccc1F)c1ccccc1 [Example 97] | 5.28^[b]
40 | Cn1nnnc1C(=NOCc1nc(C#CCC2CCCC2)ccc1F)c1ccccc1 [Example 98] | 4.92^[b]
41 | Cn1nnnc1C(=NOCc1nc(C#CCc2ccccc2)ccc1F)c1ccccc1 [Example 100] | 4.24^[b]

Row | SMILES | log p
42 | CC(C)CCC#Cc1ccc(F)c(CON=C(c2ccccc2)c2nnnn2C)n1 [Example 101] | 3.13^[b]
43 | CCSCC#Cc1ccc(F)c(CON=C(c2ccccc2)c2nnnn2C)n1 [Example 102] | 3.85^[b]
44 | Cn1nnnc1C(=NOCc1nc(C#CCCCC#N)ccc1F)c1ccccc1 [Example 103] | 3.11^[b]
45 | Cn1nnnc1C(=NOCc1nc(C#CCCCc2ccccc2)ccc1F)c1ccccc1 [Example 104] | 4.84^[b]
46 | Cn1nnnc1C(=NOCc1nc(C#CCCCCl)ccc1F)c1ccccc1 [Example 105] | 3.87^[b]
47 | Cn1nnnc1C(=NOCc1nc(C#CCOc2ccccc2)ccc1F)c1ccccc1 [Example 106] | 4.04^[b]
48 | Cn1nnnc1C(=NOCc1nc(C#CCCC2CCCCC2)ccc1F)c1ccccc1 [Example 107] | 5.68^[b]
49 | Cn1nnnc1C(=NOCc1nc(C#CC2CCCCC2)ccc1F)c1ccccc1 [Example 108] | 4.92^[b]
50 | Cn1nnnc1C(=NOCc1cccc(C#CC2CC2)n1)c1ccccc1 [Example 109] | 3.46^[b]
51 | Cn1nnnc1C(=NOCc1cccc(C#CCn2ccc(C(F)(F)F)n2)n1)c1ccccc1 [Example 110] | 3.62^[b]
52 | Cn1nnnc1C(=NOCc1cccc(C#CCC2CCC2)n1)c1ccccc1 [Example 111] | 4.39^[b]
53 | Cn1nnnc1C(=NOCc1cccc(C#CCc2cccc(F)c2)n1)c1ccccc1 [Example 112] | 4.16^[b]
54 | CCCC#Cc1nc(CON=C(c2ccccc2)c2nnnn2C)c(Cl)s1 [Example 115] | 4.75^[b]
55 | Cn1nnnc1C(=NOCc1nc(C#CC2CCCC2)sc1Cl)c1ccccc1 [Example 116] | 5.31^[b]
56 | CCCCC#Cc1nc(CON=C(c2ccccc2)c2nnnn2C)c(Cl)s1 [Example 117] | 5.22^[b]
57 | CC(C)CCC#Cc1nc(CON=C(c2ccccc2)c2nnnn2C)c(Cl)s1 [Example 118] | 5.59^[b]
58 | Cn1nnnc1C(=NOCc1nc(C#CCOc2ccccc2)sc1Cl)c1ccccc1 [Example 119] | 4.62^[b]
59 | Cn1nnnc1C(=NOCc1nc(C#CC2CCCCC2)sc1Cl)c1ccccc1 [Example 120] | 5.75^[b]
60 | Cn1nnnc1C(=NOCc1nc(C#CCCCCl)sc1Cl)c1ccccc1 [Example 121] | 4.51^[b]
61 | Cn1nnnc1C(=NOCc1nc(C#CCCCC#N)sc1Cl)c1ccccc1 [Example 122] | 3.58^[b]
62 | Cn1nnnc1C(=NOCc1nc(C#CCCCc2ccccc2)sc1Cl)c1ccccc1 [Example 123] | 5.56^[b]
63 | Cn1nnnc1C(=NOCc1cccc(C#CC2=CCCCC2)n1)c1ccccc1 [Example 124] | 4.34^[b]
64 | CCCCC#Cc1nc(CON=C(c2ccccc2)c2nnnn2C)ccc1OC [Example 127] | 3.96^[b]
65 | COc1ccc(CON=C(c2ccccc2)c2nnnn2C)nc1C#CCC1CCCC1 [Example 128] | 4.46^[b]
66 | COc1ccc(CON=C(c2ccccc2)c2nnnn2C)nc1C#CCC1CCCCC1 [Example 129] | 4.84^[b]
67 | COc1ccc(CON=C(c2ccccc2)c2nnnn2C)nc1C#CCCCc1ccccc1 [Example 130] | 4.44^[b]
68 | COc1ccc(CON=C(c2ccccc2)c2nnnn2C)nc1C#CCOc1ccccc1 [Example 131] | 3.8^[b]

Same assay, conditions: method [b]: LC-MS, pH 2.7 with 0.1% formic acid in water and acetonitrile (0.1% formic acid), linear gradient 10% to 95% acetonitrile

Row | SMILES | log p
69 | COc1ccc(CON=C(c2ccccc2)c2nnnn2C)nc1C#CC1CCCCC1 [Example 132] | 4.44^[b]
70 | COc1ccc(CON=C(c2ccccc2)c2nnnn2C)nc1C#CC(C)(C)C [Example 133] | 3.92^[b]
71 | CCc1ccc(C#Cc2nc(CON=C(c3ccccc3)c3nnnn3C)ccc2OC)cc1 [Example 134] | 4.56^[b]
72 | COc1ccc(CON=C(c2ccccc2)c2nnnn2C)nc1C#CCCCC#N [Example 135] | 2.82^[b]

Same assay, conditions: reversed phase HPLC column, pH 2.7, log p, method [b]: LC-MS at pH 2.7, 0.1% formic acid in water and acetonitrile, linear gradient 10% to 95% acetonitrile

Row | SMILES | chromatographic logP
73 | Cn1nnnc1C(=NOCc1cccc(CN)n1)c1ccccc1 [Example 52, 1-{6-[({[(1-methyl-1H-tetrazol-5-yl)(phenyl)methylene]amino}oxy)methyl]pyridin-2-yl}methanamine] | 1.23
74 | CCCCCC(=O)NCc1cccc(CON=C(c2ccccc2)c2nnnn2C)n1 [Example 53, N-({6-[({[(1-methyl-1H-tetrazol-5-yl)(phenyl)methylene]amino}oxy)methyl]pyridin-2-yl}methyl)hexanamide] | 2.88
75 | Cn1nnnc1C(=NOCc1nc(Br)ccc1F)c1ccccc1 [Example 96, N-[(6-bromo-3-fluoro-pyridin-2-yl)methoxy]-1-(1-methyl-1H-tetrazol-5-yl)-1-phenylmethanimine] | 3.27
76 | COc1ccc(CON=C(c2ccccc2)c2nnnn2C)nc1Br [Example 125, N-[(6-bromo-5-methoxypyridin-2-yl)methoxy]-1-(1-methyl-1H-tetrazol-5-yl)-1-phenylmethanimine] | 3.13

Same assay, conditions: reversed phase HPLC columns, pH 2.3, log p, method [a]: HPLC on reversed phase columns, pH 2.3 with 0.1% phosphoric acid and acetonitrile as eluent

Row | SMILES | chromatographic logP
77 | Cn1nnnc1C(=NOCc1cccc(N(CCC2CCCCC2)C(=O)OC(C)(C)C)n1)c1ccccc1 [Example 141, tert-butyl (2-cyclohexylethyl){6-[({[(1-methyl-1H-tetrazol-5-yl)(phenyl)methylene]amino}oxy)methyl]pyridin-2-yl}carbamate] | 6.56
